# PubChem BioAssay (NCI)
#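 Each compound was tested at five concentrations against cells in 96-well plates for 48 hours. The concentration for full growth arrest is given as TGI.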
# What was measured:
# Experiment in all cases: NCI anticancer screen, dose series, 48 h
# T-47D breast = test system: T-47D breast
# ACHN renal = test system: ACHN renal
# OVCAR-4 ovarian = test system: OVCAR-4 ovarian
# NCI-H460 lung = test system: NCI-H460 lung
# BT-549 breast = test system: BT-549 breast
# NCI/ADR-RES ovarian = test system: NCI/ADR-RES ovarian
# OVCAR-5 ovarian = test system: OVCAR-5 ovarian
# SK-MEL-5 melanoma = test system: SK-MEL-5 melanoma
# SNB-75 CNS = test system: SNB-75 CNS
# SN12C renal = test system: SN12C renal
# 786-0 renal = test system: 786-0 renal
# HCT-116 colon = test system: HCT-116 colon
# TK-10 renal = test system: TK-10 renal
# NCI-H23 lung = test system: NCI-H23 lung
# SF-539 CNS = test system: SF-539 CNS
# MDA-N = test system: MDA-N
# CAKI-1 renal = test system: CAKI-1 renal
# HCC-2998 colon = test system: HCC-2998 colon
# SK-MEL-2 melanoma = test system: SK-MEL-2 melanoma
# MCF7 breast = test system: MCF7 breast
# SK-OV-3 ovarian = test system: SK-OV-3 ovarian
# RXF 393 renal = test system: RXF 393 renal
# DU-145 prostate = test system: DU-145 prostate
# SF-268 CNS = test system: SF-268 CNS
# M14 melanoma = test system: M14 melanoma
# HCT-15 colon = test system: HCT-15 colon
# MALME-3M melanoma = test system: MALME-3M melanoma
# EKVX NSCLC = test system: EKVX NSCLC
# NCI-H226 lung = test system: NCI-H226 lung
# UACC-62 melanoma = test system: UACC-62 melanoma
# PC-3 prostate = test system: PC-3 prostate
# UO-31 renal = test system: UO-31 renal
# COLO 205 colon = test system: COLO 205 colon
# UACC-257 melanoma = test system: UACC-257 melanoma
# HT29 colon = test system: HT29 colon
# HOP-62 NSCLC = test system: HOP-62 NSCLC
# RPMI-8226 leukemia = test system: RPMI-8226 leukemia
# IGROV1 ovarian = test system: IGROV1 ovarian
# SK-MEL-28 melanoma = test system: SK-MEL-28 melanoma
# SW-620 colon = test system: SW-620 colon
# SR leukemia = test system: SR leukemia
# SF-295 CNS = test system: SF-295 CNS
# MDA-MB-435 = test system: MDA-MB-435
# HOP-92 NSCLC = test system: HOP-92 NSCLC
# OVCAR-8 ovarian = test system: OVCAR-8 ovarian
# NCI-H522 lung = test system: NCI-H522 lung
# U251 CNS = test system: U251 CNS
# OVCAR-3 ovarian = test system: OVCAR-3 ovarian
# A549 NSCLC = test system: A549 NSCLC
smiles,measurement,setting,value
NCC(=O)N1CCN(c2nc(N3CCCC3)c3nc(Cl)c(NCc4ccccc4)nc3n2)CC1,TGI,T-47D breast,3.03 µM
same,TGI,ACHN renal,4.34 µM
same,TGI,OVCAR-4 ovarian,4.79 µM
same,TGI,NCI-H460 lung,3.59 µM
same,TGI,BT-549 breast,3.74 µM
same,TGI,NCI/ADR-RES ovarian,36.8 µM
same,TGI,OVCAR-5 ovarian,9.87 µM
same,TGI,SK-MEL-5 melanoma,3.17 µM
same,TGI,SNB-75 CNS,3.16 µM
same,TGI,SN12C renal,3.34 µM
same,TGI,786-0 renal,3.11 µM
same,TGI,HCT-116 colon,3.23 µM
same,TGI,TK-10 renal,3.73 µM
same,TGI,NCI-H23 lung,3.63 µM
same,TGI,SF-539 CNS,3.58 µM
same,TGI,MDA-N,3.34 µM
same,TGI,CAKI-1 renal,6.4 µM
same,TGI,HCC-2998 colon,3.03 µM
same,TGI,SK-MEL-2 melanoma,3.42 µM
same,TGI,MCF7 breast,3.38 µM
same,TGI,SK-OV-3 ovarian,3.54 µM
same,TGI,RXF 393 renal,2.89 µM
same,TGI,DU-145 prostate,6.82 µM
same,TGI,SF-268 CNS,4.41 µM
same,TGI,M14 melanoma,3.15 µM
same,TGI,HCT-15 colon,3.67 µM
same,TGI,MALME-3M melanoma,3.73 µM
same,TGI,EKVX NSCLC,3.81 µM
same,TGI,NCI-H226 lung,19 µM
same,TGI,UACC-62 melanoma,3.24 µM
same,TGI,PC-3 prostate,7.33 µM
same,TGI,UO-31 renal,3.06 µM
same,TGI,COLO 205 colon,3.19 µM
same,TGI,UACC-257 melanoma,3.24 µM
O=C(NCCCCNCCCNC(=O)c1cc(-c2ccccc2)nc2ccccc12)c1cc(-c2ccccc2)nc2ccccc12,TGI,ACHN renal,3.3 µM
same,TGI,HT29 colon,3.1 µM
same,TGI,HOP-62 NSCLC,3.02 µM
same,TGI,NCI-H460 lung,3.39 µM
same,TGI,RPMI-8226 leukemia,6.33 µM
same,TGI,BT-549 breast,37.5 µM
same,TGI,IGROV1 ovarian,2.88 µM
same,TGI,NCI/ADR-RES ovarian,5.09 µM
same,TGI,SK-MEL-28 melanoma,3.42 µM
same,TGI,SK-MEL-5 melanoma,2.75 µM
same,TGI,SN12C renal,3.38 µM
same,TGI,SW-620 colon,3.1 µM
same,TGI,786-0 renal,3.03 µM
same,TGI,HCT-116 colon,3.2 µM
same,TGI,TK-10 renal,2.93 µM
same,TGI,SR leukemia,6.09 µM
same,TGI,NCI-H23 lung,4.02 µM
same,TGI,SF-539 CNS,3.81 µM
same,TGI,MDA-N,3.23 µM
same,TGI,CAKI-1 renal,3.82 µM
same,TGI,HCC-2998 colon,3.09 µM
same,TGI,SK-MEL-2 melanoma,3.49 µM
same,TGI,MCF7 breast,3.07 µM
same,TGI,SF-295 CNS,3.17 µM
same,TGI,MDA-MB-435,3.17 µM
same,TGI,RXF 393 renal,3.97 µM
same,TGI,DU-145 prostate,3.8 µM
same,TGI,HOP-92 NSCLC,3.01 µM
same,TGI,OVCAR-8 ovarian,3.06 µM
same,TGI,HCT-15 colon,3.46 µM
same,TGI,MALME-3M melanoma,3.23 µM
same,TGI,EKVX NSCLC,3.52 µM
same,TGI,NCI-H522 lung,3.08 µM
same,TGI,NCI-H226 lung,3.26 µM
same,TGI,U251 CNS,3.32 µM
same,TGI,UACC-62 melanoma,3.9 µM
same,TGI,PC-3 prostate,2.98 µM
same,TGI,UO-31 renal,3.21 µM
same,TGI,OVCAR-3 ovarian,2.99 µM
same,TGI,UACC-257 melanoma,3.36 µM
same,TGI,A549 NSCLC,3.01 µM
